Results as given in article PMC10557102 (Pharmacology Research & Perspectives, 2023).
Where “and” joins values, the source holds several entries; their conditions need not be identical. Equal entries are not always repeated. Where two headings read alike, the source gives them in different places.

Assays:
CYP2C19 [1] = target: T1, CYP2C19 (Homo sapiens, UniProt P33261); assay: clinical; conditions: both, in vivo; for AUC(0-t) / half-life: geometric mean (95% CI); for half-life: t ½
healthy subjects = assay: Safety and tolerability in the clinical study; conditions: Day 1 to Day 15, healthy subjects
CYP2C19 [2] = target: T1, CYP2C19; conditions: for t max: median (range); for t max median difference B–A / t max median difference D–A: median difference (90% CI); for AUC0–24 ratio Trt B/Trt A / C max ratio Trt B/Trt A: initial nivasorexant dose vs cocktail alone; for C max / AUC0–24 / t ½: geometric mean (95% CI)
CYP2C9 [3] = conditions: for t max: median (range); for half-life: t ½; for t max median difference B–A / t max median difference D–A: median difference (90% CI); for t ½ ratio Trt B/Trt A / t ½ ratio Trt D/Trt A / AUC0–24 ratio Trt B/Trt A / C max ratio Trt B/Trt A / AUC0–24 ratio Trt D/Trt A / C max ratio Trt D/Trt A: ratio of geometric means (90% CI); for AUC0–24 ratio Trt B/Trt A / C max ratio Trt B/Trt A: initial nivasorexant dose vs cocktail alone; for AUC0–24 ratio Trt D/Trt A / C max ratio Trt D/Trt A: nivasorexant steady state vs cocktail alone
CYP3A4 [4] = target: T2, CYP3A4 (Homo sapiens, UniProt P08684); assay: Cocktail DDI study: PK of midazolam and 1-OH midazolam with/without nivasorexant; conditions: for t max: median (range); for AUC(0-t) / half-life: both, human, plasma, oral; for half-life: t ½; for t max median difference B–A / t max median difference D–A: median difference (90% CI); for t ½ ratio Trt B/Trt A / t ½ ratio Trt D/Trt A / AUC0–24 ratio Trt B/Trt A / C max ratio Trt B/Trt A / AUC0–24 ratio Trt D/Trt A / C max ratio Trt D/Trt A: ratio of geometric means (90% CI); for AUC0–24 ratio Trt B/Trt A / C max ratio Trt B/Trt A: initial nivasorexant dose vs cocktail alone; for AUC0–24 ratio Trt D/Trt A / C max ratio Trt D/Trt A: nivasorexant steady state vs cocktail alone
CYP3A4 [5] = target: T2, CYP3A4; conditions: cited from earlier work
CYP2C19 [6] = conditions: 25 mg b.i.d. for 6 days; cited from earlier work
CYP2C9 [7] = target: CYP2C9 (Homo sapiens, UniProt P11712); conditions: with flurbiprofen, tolbutamide, and warfarin; cited from earlier work
[8] = Trt D, Day 15, cocktail + nivasorexant at steady state
[9] = ratio of geometric means (90% CI)
[10] = ratio of geometric means (90% CI), nivasorexant steady state vs cocktail alone
[11] = Trt A, Day 1, cocktail alone, geometric mean (95% CI)
[12] = Trt B, Day 8, cocktail + initial 100 mg nivasorexant, geometric mean (95% CI)
[13] = Trt B, Day 8, cocktail + initial 100 mg nivasorexant
[14] = Trt D, Day 15, cocktail + nivasorexant at steady state, geometric mean (95% CI)

T2 sequence (P08684 whole entry): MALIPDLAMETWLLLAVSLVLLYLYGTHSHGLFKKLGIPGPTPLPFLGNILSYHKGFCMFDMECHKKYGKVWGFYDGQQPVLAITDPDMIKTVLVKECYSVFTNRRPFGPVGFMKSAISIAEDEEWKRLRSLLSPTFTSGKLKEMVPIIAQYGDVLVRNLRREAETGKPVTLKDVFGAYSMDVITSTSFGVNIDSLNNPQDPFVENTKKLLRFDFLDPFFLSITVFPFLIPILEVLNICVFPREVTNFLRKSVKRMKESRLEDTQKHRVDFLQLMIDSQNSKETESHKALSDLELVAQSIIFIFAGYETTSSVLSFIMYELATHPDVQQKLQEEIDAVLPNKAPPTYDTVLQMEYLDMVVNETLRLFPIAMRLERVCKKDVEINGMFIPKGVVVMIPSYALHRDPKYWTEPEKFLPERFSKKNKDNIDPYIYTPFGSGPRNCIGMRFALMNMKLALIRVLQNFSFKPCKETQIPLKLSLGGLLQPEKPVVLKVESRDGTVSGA
T1 sequence (P33261 whole entry): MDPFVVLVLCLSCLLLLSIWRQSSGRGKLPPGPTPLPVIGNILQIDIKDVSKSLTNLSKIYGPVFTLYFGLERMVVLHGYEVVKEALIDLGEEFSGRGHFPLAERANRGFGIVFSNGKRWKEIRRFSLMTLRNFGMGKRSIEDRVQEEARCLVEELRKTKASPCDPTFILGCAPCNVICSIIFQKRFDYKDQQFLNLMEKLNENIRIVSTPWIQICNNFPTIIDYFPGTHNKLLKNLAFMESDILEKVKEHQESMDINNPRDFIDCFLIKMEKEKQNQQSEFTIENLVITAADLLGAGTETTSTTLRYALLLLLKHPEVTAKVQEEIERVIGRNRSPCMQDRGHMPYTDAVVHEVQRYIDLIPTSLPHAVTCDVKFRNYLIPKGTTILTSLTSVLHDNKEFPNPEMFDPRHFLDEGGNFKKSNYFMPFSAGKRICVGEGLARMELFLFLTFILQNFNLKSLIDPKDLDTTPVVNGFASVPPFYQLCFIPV
Sequence of CYP2C9 (Homo sapiens, UniProt P11712) (P11712 whole entry): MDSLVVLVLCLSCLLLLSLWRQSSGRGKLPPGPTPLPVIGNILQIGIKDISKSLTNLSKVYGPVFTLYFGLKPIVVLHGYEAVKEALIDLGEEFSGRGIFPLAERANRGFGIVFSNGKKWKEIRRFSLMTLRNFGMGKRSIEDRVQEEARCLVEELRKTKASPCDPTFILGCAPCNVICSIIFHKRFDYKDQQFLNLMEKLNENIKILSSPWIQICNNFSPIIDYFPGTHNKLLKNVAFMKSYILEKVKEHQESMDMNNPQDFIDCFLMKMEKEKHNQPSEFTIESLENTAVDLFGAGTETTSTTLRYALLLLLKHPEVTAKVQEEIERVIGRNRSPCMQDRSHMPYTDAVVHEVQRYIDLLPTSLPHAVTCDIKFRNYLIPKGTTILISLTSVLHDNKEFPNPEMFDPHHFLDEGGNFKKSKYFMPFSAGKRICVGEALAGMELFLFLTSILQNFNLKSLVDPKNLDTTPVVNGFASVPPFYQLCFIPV

COc1ccc2[nH]c([S+]([O-])Cc3ncc(C)c(OC)c3C)nc2c1 (stereo not shown) [omeprazole]
Cmax (CYP2C19 [1]; 20 mg): 162 ng/mL
AUC(0-t) (CYP2C19 [1]; AUC0–24, Trt A, Day 1, cocktail alone): 372 ng·h/mL
AUC(0-t) (CYP2C19 [1]; AUC0–24, Trt D, Day 15, cocktail + nivasorexant at steady state): 2670 ng·h/mL
half-life (CYP2C19 [1]; Trt A, Day 1, cocktail alone): 0.99 h
half-life (CYP2C19 [1]; [8]): 1.99 h
safety and tolerability (in words) (healthy subjects): safe and well tolerated
t max (CYP2C19 [2]; Trt A, Day 1, cocktail alone): 3.00 (1.00–6.00) h
t max median difference B–A (CYP2C19 [2]): 0.5 h
t max median difference D–A (CYP2C19 [2]): 1.00 h
t max median difference B–A (CYP2C19 [2]; listed as Omeprazole): 0.50 (0.00–1.49) h
t max median difference D–A (CYP2C19 [2]; listed as Omeprazole): 1.00 (0.50–1.75) h
t ½ ratio Trt B/Trt A (CYP2C19 [2]; [9]): 1.46 (1.24–1.72)
t ½ ratio Trt D/Trt A (CYP2C19 [2]; [9]): 2.01 (1.69–2.40)
AUC0–24 ratio Trt B/Trt A (CYP2C19 [2]; [9]): 2.05 and 2.1
C max ratio Trt B/Trt A (CYP2C19 [2]; [9]): 1.60 (1.30–1.97)
AUC0–24 ratio Trt D/Trt A (CYP2C19 [2]; [10]): 6.84 and 6.8
C max ratio Trt D/Trt A (CYP2C19 [2]; [10]): 3.31 (2.55–4.28)

CC(C(=O)O)c1ccc(-c2ccccc2)c(F)c1 (stereo not shown) [flurbiprofen]
safety and tolerability (in words) (healthy subjects): safe and well tolerated
Cmax (CYP2C9 [3]; both, human, in vivo, 50 mg, C max, Trt A, Day 1, cocktail alone (flurbiprofen 50 mg), geometric mean (95% CI)): 6410 ng/mL
t max (CYP2C9 [3]; both, human, in vivo, t max, Trt A, Day 1, cocktail alone): 2 h
t max (CYP2C9 [3]; both, human, in vivo, t max, Trt D, Day 15, cocktail + nivasorexant at steady state): 2.5 h
half-life (CYP2C9 [3]; both, human, in vivo, Trt A, Day 1, cocktail alone, geometric mean (95% CI)): 5.73 h
half-life (CYP2C9 [3]; both, human, in vivo, Trt D, Day 15, cocktail + nivasorexant at steady state, geometric mean (95% CI)): 7.89 h
t max median difference B–A (CYP2C9 [3]): 0.75 (0.00–1.51) h
t max median difference D–A (CYP2C9 [3]): 0.50 (−0.13–1.16) h
t ½ ratio Trt B/Trt A (CYP2C9 [3]): 1.11 (1.07–1.15)
t ½ ratio Trt D/Trt A (CYP2C9 [3]): 1.39 (1.31–1.47)
AUC0–24 ratio Trt B/Trt A (CYP2C9 [3]): 1.04
C max ratio Trt B/Trt A (CYP2C9 [3]): 0.97 (0.86–1.08)
AUC0–24 ratio Trt D/Trt A (CYP2C9 [3]): 1.47 and 1.5
C max ratio Trt D/Trt A (CYP2C9 [3]): 1.08 (0.97–1.20)

CC(C(=O)O)c1ccc(-c2ccc(O)cc2)c(F)c1 (stereo not shown) [4‐OH flurbiprofen, 4‐hydroxyflurbiprofen]
C max (CYP2C9 [3]; Trt A, Day 1, cocktail alone (flurbiprofen 50 mg), geometric mean (95% CI)): 316 (278–359) ng/mL
AUC0–24 (CYP2C9 [3]; [11]): 2516 (2280–2778) ng*h/mL
t ½ (CYP2C9 [3]; [11]): 7.85 (7.04–8.75) h
t max (CYP2C9 [3]; Trt A, Day 1, cocktail alone): 3.00 (1.50–6.00) h
AUC0–24 (CYP2C9 [3]; [12]): 2366 (2138–2618) ng*h/mL
C max (CYP2C9 [3]; [12]): 289 (259–322) ng/mL
t ½ (CYP2C9 [3]; [12]): 8.03 (7.28–8.87) h
t max (CYP2C9 [3]; [13]): 3.00 (1.50–6.02) h
AUC0–24 (CYP2C9 [3]; [14]): 1924 (1763–2099) ng*h/mL
t ½ (CYP2C9 [3]; [14]): 12.0 (10.0–14.3) h
t max (CYP2C9 [3]; [8]): 3.00 (1.50–6.00) h
t max median difference B–A (CYP2C9 [3]): 0.74 (−0.02–1.50) h
t max median difference D–A (CYP2C9 [3]): 0.50 (−0.04–1.00) h
t ½ ratio Trt B/Trt A (CYP2C9 [3]): 1.02 (0.97–1.09)
t ½ ratio Trt D/Trt A (CYP2C9 [3]): 1.54 (1.39–1.70)
AUC0–24 ratio Trt B/Trt A (CYP2C9 [3]): 0.94 (0.90–0.98)
C max ratio Trt B/Trt A (CYP2C9 [3]): 0.91 (0.87–0.96)
AUC0–24 ratio Trt D/Trt A (CYP2C9 [3]): 0.74 (0.70–0.79)
C max ratio Trt D/Trt A (CYP2C9 [3]): 0.53 (0.49–0.59)

Cc1ncc2n1-c1ccc(Cl)cc1C(c1ccccc1F)=NC2 [midazolam]
t max (CYP3A4 [4]; Trt A, Day 1, cocktail alone): 0.75 (0.50–3.00) h
AUC0–24 (CYP3A4 [4]; [12]): 22.7 (19.5–26.5) ng*h/mL
AUC(0-t) (CYP3A4 [4]; AUC0–24, Trt A, Day 1, cocktail alone, geometric mean (95% CI)): 14.6 ng·h/mL
AUC(0-t) (CYP3A4 [4]; AUC0–24, Trt D, Day 15, cocktail + nivasorexant at steady state, geometric mean (95% CI)): 54.8 ng·h/mL
half-life (CYP3A4 [4]; [11]): 4.94 h
half-life (CYP3A4 [4]; [14]): 6.75 h
t max median difference B–A (CYP3A4 [4]): 0.00 (−0.13–0.13) h
t max median difference D–A (CYP3A4 [4]): 0.00 (−0.13–0.13) h
t ½ ratio Trt B/Trt A (CYP3A4 [4]): 1.67 (1.38–2.01)
t ½ ratio Trt D/Trt A (CYP3A4 [4]): 1.25 (1.07–1.46)
AUC0–24 ratio Trt B/Trt A (CYP3A4 [4]): 1.56 and 1.6
C max ratio Trt B/Trt A (CYP3A4 [4]): 1.34 (1.22–1.46)
AUC0–24 ratio Trt D/Trt A (CYP3A4 [4]): 3.71 and 3.7
C max ratio Trt D/Trt A (CYP3A4 [4]): 2.62 (2.31–2.97)
increase in midazolam AUC (CYP3A4 [5]; initial b.i.d. dosing with 200 mg nivasorexant): 1.8 fold
increase in midazolam AUC (CYP3A4 [5]; repeated b.i.d. dosing (over 10 days) with 200 mg nivasorexant): 4.5 fold
safety and tolerability (in words) (healthy subjects): safe and well tolerated

COc1ccc2nc([S+]([O-])Cc3ncc(CO)c(OC)c3C)[nH]c2c1 (stereo not shown) [5‐OH omeprazole]
C max (CYP2C19 [2]; Trt A, Day 1, cocktail alone (omeprazole 20 mg)): 129 (110–151) ng/mL
AUC0–24 (CYP2C19 [2]; Trt A, Day 1, cocktail alone): 367 (332–406) ng*h/mL
t ½ (CYP2C19 [2]; Trt A, Day 1, cocktail alone): 1.34 (1.20–1.49) h
t max (CYP2C19 [2]; Trt A, Day 1, cocktail alone): 3.00 (1.00–6.00) h
AUC0–24 (CYP2C19 [2]; [13]): 338 (314–363) ng*h/mL
C max (CYP2C19 [2]; [13]): 97.0 (85.0–110.7) ng/mL
t ½ (CYP2C19 [2]; [13]): 1.53 (1.30–1.80) h
t max (CYP2C19 [2]; [13]): 3.49 (1.50–6.02) h
AUC0–24 (CYP2C19 [2]; [8]): 278 (253–305) ng*h/mL
t ½ (CYP2C19 [2]; [8]): 2.03 (1.79–2.32) h
t max (CYP2C19 [2]; [8]): 4.00 (1.50–10.00) h
t max median difference B–A (CYP2C19 [2]): 0.50 (0.00–1.16) h
t max median difference D–A (CYP2C19 [2]): 1.25 (0.75–2.00) h
t ½ ratio Trt B/Trt A (CYP2C19 [2]; [9]): 1.14 (0.99–1.32)
t ½ ratio Trt D/Trt A (CYP2C19 [2]; [9]): 1.50 (1.36–1.66)
AUC0–24 ratio Trt B/Trt A (CYP2C19 [2]; [9]): 0.92 (0.85–1.00)
C max ratio Trt B/Trt A (CYP2C19 [2]; [9]): 0.75 (0.66–0.86)
AUC0–24 ratio Trt D/Trt A (CYP2C19 [2]; [10]): 0.74 (0.67–0.82)

COCCCC/C(=N\OCCN)c1ccc(C(F)(F)F)cc1 [fluvoxamine]
increase in omeprazole exposure (CYP2C19 [6]): 5.6 fold

OC(Cn1cncn1)(Cn1cncn1)c1ccc(F)cc1F [fluconazole]
increase in AUC ratio of CYP2C9 probe substrates (CYP2C9 [7]): approximately two‐fold

OCc1ncc2n1-c1ccc(Cl)cc1C(c1ccccc1F)=NC2 [1‐OH midazolam, 1‐hydroxy (OH) midazolam]
AUC0–24 (CYP3A4 [4]; [11]): 8.50 (7.23–10.00) ng*h/mL
t ½ (CYP3A4 [4]; [11]): 2.27 (1.58–3.25) h
t max (CYP3A4 [4]; Trt A, Day 1, cocktail alone): 0.50 (0.50–3.00) h
AUC0–24 (CYP3A4 [4]; [12]): 8.64 (7.37–10.13) ng*h/mL
C max (CYP3A4 [4]; [12]): 4.12 (3.53–4.82) ng/mL
t ½ (CYP3A4 [4]; [12]): 2.94 (2.04–4.22) h
t max (CYP3A4 [4]; [13]): 0.75 (0.50–1.50) h
AUC0–24 (CYP3A4 [4]; [14]): 9.88 (8.02–12.18) ng*h/mL
t ½ (CYP3A4 [4]; [14]): 9.04 (6.82–11.97) h
t max (CYP3A4 [4]; [8]): 0.50 (0.50–1.50) h
t max median difference B–A (CYP3A4 [4]): 0.00 (0.000–0.13) h
t max median difference D–A (CYP3A4 [4]): 0.00 (−0.13–0.13) h
t ½ ratio Trt B/Trt A (CYP3A4 [4]): 1.29 [1.03–1.62]
t ½ ratio Trt D/Trt A (CYP3A4 [4]): 3.05 (2.03–4.58)
AUC0–24 ratio Trt B/Trt A (CYP3A4 [4]): 1.02 (0.96–1.08)
C max ratio Trt B/Trt A (CYP3A4 [4]): 1.02 (0.91–1.15)
t ½ ratio Trt B/Trt A (CYP3A4 [4]; listed as 1‐OH Midazolam): 1.29 (1.03–1.62)
AUC0–24 ratio Trt D/Trt A (CYP3A4 [4]): 1.15 (1.06–1.24)
C max ratio Trt D/Trt A (CYP3A4 [4]): 0.86 (0.75–0.98)
